Laboratory results published in article PMC5613068, “Resolving distinct molecular origins for copper effects on PAI-1” (Journal of Biological Inorganic Chemistry, 2017).
Like-named read-outs stand apart in the source and are kept apart here. Blank lines part the entries; values can stand above or below the molecule they belong to.

Columns and labels:
PAI-1 [1] = biological target: PAI-1; parameters: method as in PMID 21280128; conditions: read-out: K d of copper binding to PAI-1; cited from earlier work
PAI-1 [2] = biological target: PAI-1; parameters: method as in PMID 12067733, PMID 10764685; conditions: read-out: K d of VN binding to PAI-1; cited from earlier work
tPA = tPA (Homo sapiens, UniProt P00750); experiment: PAI-1 activity measurement (inhibition of tPA at varying molar ratios); assay type: biochemical; conditions: purified active protein
Description: The activity of wild-type and variant forms of PAI-1 was measured using standard assays. PAI-1 was mixed with tPA at varying molar ratios ranging from 0.25 to 4 (PAI-1:tPA). The inhibitory capacity of PAI-1 was measured in a gel-based assay, wherein the PAI-1/tPA complex at each molar ratio was monitored and quantified by densitometry. PAI-1 inhibition of proteases was also measured in a kinetic assay in which the tPA-substrate (Spectrozyme tPA, Sekisui Diagnostics) was added to the mixture containing PAI-1 and tPA. Cleavage of the p-nitroanaline group of Spectrozyme tPA was detected by absorbance at 405 nm, allowing for the measurement of tPA activity over time at each molar ratio of PAI-1:tPA. […] Latent PAI-1 was generated by dilution in buffer (50 mM sodium phosphate, 300 mM NaCl, 1 mM EDTA, pH 6.25) to a 5 μM concentration, and incubation at 37 °C with light stirring for 6 days. The aforementioned activity measurements were performed to confirm that no active PAI-1 remained in the mixture.

[3] = Isothermal titration calorimetry of Cu(II) binding to PAI-1; conditions: 10 °C; for Kd / K obs: one-site model; for Kd: K d = 1/K obs
Description: Isothermal titration calorimetry (ITC) was used to determine the thermodynamic parameters associated with Cu(II) interactions with PAI-1. Active and latent forms of wild-type and variants of PAI-1 were dialyzed into 100 mM MOPS, 250 mM (NH4)2SO4 at 10 °C for 2 h. Because of the relative instability of the H2AH3A variant of PAI-1, our studies on H2AH3A PAI-1 utilized a variant that contained an additional mutation, W175F. […] Residue 175 is not proximal to the N terminus and is not involved in metal ion coordination or its subsequent effects on PAI-1 stability. Copper solutions were prepared by diluting CuSO4 into the matched dialysate buffer. The copper stock concentration was verified using atomic absorbance spectroscopy, and the pH corrected to 7.4 at 10 °C using NaOH. Twenty micromolar PAI-1 (2.2 mL total volume) and copper solution (4 mL) were degassed under vacuum for 10 min at 5 °C prior to loading into the (Malvern) MicroCal VP-ITC. The PAI-1 solution was loaded into the ITC cell (1.394 mL), and the copper solution was loaded into the ITC syringe. The reference and experimental ITC cells were equilibrated to 10 °C prior to the start of the experiment. After a preliminary injection of 2 µL, each additional injection consisted of a 4 µL injection at 120 or 240 s intervals. Experiments were performed at least in duplicate. Control experiments measuring dilution heats were performed in which the copper solution was injected into buffer. The data were baseline corrected using NITPIC software (University of Texas, Southwestern), and fit to either a single-site or two-site non-symmetric binding model in SEDPHAT (National Institutes of Health). The data and fits were represented using GUSSI software (University of Texas, Southwestern).

[4] = Metal ion titration gel assay (copper sensitivity of PAI-1 latency, PAI-1/tPA complex densitometry); assay type: biochemical; conditions: 4 µM PAI-1, 30 min, 37 °C, 50 mM MOPS, 100 mM (NH4)2SO4 pH 7.4, total Cu(II) 5-1000 µM, non-equilibrium
Description: To determine the Cu(II) concentrations required to induce accelerated PAI-1 latency, we used a gel-based metal ion titration assay. Serial dilutions of CuSO4 were prepared, resulting in final Cu(II) concentrations ranging from 5 to 1000 μM. […] Incubation with metal was initiated by adding PAI-1 at a final concentration of 4 μM and maintaining the mixture at 37 °C in 50 mM MOPS, 100 mM (NH4)2SO4 pH 7.4 for 30 min. After the 30-min incubation, PAI-1 was mixed in a 1:1 ratio with single-chain tPA (Molecular Innovations). Three control samples (PAI-1, tPA, and PAI-1/tPA) were also tested in which copper is not included. Non-reducing SDS-PAGE dye was added to each sample, followed by boiling for 10 min prior to loading on the gel. The free/latent PAI-1, free tPA, and PAI-1/tPA complex in each sample were separated and visualized by SDS-PAGE electrophoresis in a 4–12% gradient gel (Invitrogen). Samples were subjected to electrophoresis at 150 V for 75 min. SDS-PAGE gels were stained with Coomassie blue dye overnight, followed by three destaining steps of 90 min in deionized water containing 30% methanol and 7.5% glacial acetic acid. Gel pictures were captured using a ChemiDoc XRS molecular imager (Biorad), and gel band densitometry of the PAI-1/tPA complex bands was performed using Imagelab (Biorad). […]

[5] = biological target: vitronectin SMB domain (Homo sapiens) (UniProt P04004); conditions: cited from earlier work
[6] = biological target: vitronectin (Homo sapiens) (UniProt P04004); conditions: cited from earlier work
Sequence of vitronectin (Homo sapiens) (P04004 399-478): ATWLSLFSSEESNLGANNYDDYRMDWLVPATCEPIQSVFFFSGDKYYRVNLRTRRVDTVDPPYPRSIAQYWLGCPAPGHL

Sequence of PAI-1 (from UniProt P05121) (P05121 24-402): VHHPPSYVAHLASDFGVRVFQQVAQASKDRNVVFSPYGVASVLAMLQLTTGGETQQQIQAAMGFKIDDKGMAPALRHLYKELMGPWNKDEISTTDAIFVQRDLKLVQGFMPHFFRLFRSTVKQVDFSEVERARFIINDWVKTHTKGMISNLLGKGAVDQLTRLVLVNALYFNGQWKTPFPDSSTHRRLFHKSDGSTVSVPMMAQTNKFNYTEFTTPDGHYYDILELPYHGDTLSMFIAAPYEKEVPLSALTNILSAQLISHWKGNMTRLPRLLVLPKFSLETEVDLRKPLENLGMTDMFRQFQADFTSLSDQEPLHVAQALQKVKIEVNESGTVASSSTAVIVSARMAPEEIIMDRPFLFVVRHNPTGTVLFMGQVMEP
Sequence of tPA (P00750 311-562 limits assumed): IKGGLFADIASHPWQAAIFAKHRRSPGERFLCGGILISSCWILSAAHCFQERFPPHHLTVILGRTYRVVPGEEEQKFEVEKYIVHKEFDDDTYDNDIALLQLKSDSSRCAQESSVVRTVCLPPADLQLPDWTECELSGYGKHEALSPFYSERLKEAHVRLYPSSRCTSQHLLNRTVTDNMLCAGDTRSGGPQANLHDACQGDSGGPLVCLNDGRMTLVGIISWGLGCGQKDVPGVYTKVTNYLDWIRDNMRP
Sequence of vitronectin SMB domain (Homo sapiens) (P04004 17-66): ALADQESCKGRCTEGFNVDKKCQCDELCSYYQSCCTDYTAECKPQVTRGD

Molecule: O=S(=O)([O-])[O-].[Cu+2] [Copper, CuSO4]
Kd (PAI-1 [1]): ~90 nM

Molecule: VN: Vitronectin, glycoprotein that binds and stabilizes active PAI-1
Kd (PAI-1 [2]): ~0.1 nM

molar equivalents of PAI-1 that fully inhibit tPA (tPA): 1.25 molar equivalents | Kd ([3]; [Cu(II)] 650 µM): 13 nM | Kd ([3]; [Cu(II)] 700 µM): 19 nM | K obs ([3]; [Cu(II)] 750 µM): 4.8 (±5.5) × 10^7 M^−1 | Kd ([3]; [Cu(II)] 750 µM): 20 nM | K obs ([3]; [Cu(II)] 800 µM): 4.1 (±2.8) × 10^7 M^−1 | Kd ([3]; [Cu(II)] 800 µM): 24 nM | average K obs ([3]; single-site model, average of replicate data): 5.4e+07 M⁻¹
Molecule: plasminogen activator inhibitor-1 [Wild-type]
Copper sensitivity (midpoint Cu(II) concentration at which 50% PAI-1/tPA complex is observed) [4]: 150 µM | Copper sensitivity (midpoint Cu(II) concentration at which 50% PAI-1/tPA complex is observed) ([4]; listed as wild-type PAI-1): approximately 150 µM

Molecule: PAI-1 (from UniProt P05121)
Kd [5]: 1 nM | Kd [6]: 0.1 nM
